Here are results for 15 compounds from ChEMBL document CHEMBL5291721, “A preclinical secondary pharmacology resource illuminates target-adverse drug reaction associations of marketed drugs” (Nat Commun, 2023).

One assay concerns the target T1, Adenosine receptor A1 (Homo sapiens, UniProt P30542).
T1 sequence (P30542 whole entry): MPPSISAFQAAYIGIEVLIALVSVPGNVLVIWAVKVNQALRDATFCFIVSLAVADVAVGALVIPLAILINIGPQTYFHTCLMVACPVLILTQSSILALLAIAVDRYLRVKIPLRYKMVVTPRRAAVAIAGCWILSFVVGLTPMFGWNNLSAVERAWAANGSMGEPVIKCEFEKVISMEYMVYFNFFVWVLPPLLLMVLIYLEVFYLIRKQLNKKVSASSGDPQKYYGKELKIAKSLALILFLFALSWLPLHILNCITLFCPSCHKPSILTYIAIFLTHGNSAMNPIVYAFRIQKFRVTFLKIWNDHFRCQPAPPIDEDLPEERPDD

Assay [1] addresses Beta-1 adrenergic receptor (Homo sapiens, UniProt P08588). In kind it is functional.
A further assay has as its target T2, B2 bradykinin receptor (Homo sapiens, UniProt P30411).
T2 sequence (P30411 whole entry): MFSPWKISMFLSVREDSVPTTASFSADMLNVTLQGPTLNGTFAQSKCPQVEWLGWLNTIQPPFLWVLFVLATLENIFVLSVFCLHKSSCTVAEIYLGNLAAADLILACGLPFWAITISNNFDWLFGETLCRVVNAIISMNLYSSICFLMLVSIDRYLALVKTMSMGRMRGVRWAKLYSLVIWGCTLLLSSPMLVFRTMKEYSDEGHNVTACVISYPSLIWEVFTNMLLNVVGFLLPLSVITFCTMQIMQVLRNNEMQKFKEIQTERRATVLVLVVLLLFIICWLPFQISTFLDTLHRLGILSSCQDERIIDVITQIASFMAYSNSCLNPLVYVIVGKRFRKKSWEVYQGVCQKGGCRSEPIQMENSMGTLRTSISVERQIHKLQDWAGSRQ

The target of assay [2] is T3, Prostaglandin G/H synthase 1 (Rattus norvegicus, UniProt Q63921).
T3 sequence (Q63921 whole entry): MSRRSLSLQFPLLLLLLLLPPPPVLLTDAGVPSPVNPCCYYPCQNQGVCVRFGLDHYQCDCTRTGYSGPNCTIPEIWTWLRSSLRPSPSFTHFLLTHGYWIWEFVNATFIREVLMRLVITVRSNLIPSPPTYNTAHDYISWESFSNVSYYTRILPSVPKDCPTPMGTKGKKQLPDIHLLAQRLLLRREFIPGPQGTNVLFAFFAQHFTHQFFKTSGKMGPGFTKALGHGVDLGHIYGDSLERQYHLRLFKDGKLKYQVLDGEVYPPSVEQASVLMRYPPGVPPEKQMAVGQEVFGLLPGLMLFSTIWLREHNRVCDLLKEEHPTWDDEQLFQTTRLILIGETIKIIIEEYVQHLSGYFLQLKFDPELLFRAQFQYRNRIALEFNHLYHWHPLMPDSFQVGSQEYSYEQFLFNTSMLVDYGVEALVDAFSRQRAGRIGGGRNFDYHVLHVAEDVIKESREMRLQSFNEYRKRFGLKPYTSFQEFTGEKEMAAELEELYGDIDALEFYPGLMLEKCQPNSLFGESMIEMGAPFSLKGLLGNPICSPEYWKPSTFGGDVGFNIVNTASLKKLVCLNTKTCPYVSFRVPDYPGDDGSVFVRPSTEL
In kind it is functional.

For the next assay, the target named is T4, Thromboxane A2 receptor (Homo sapiens, UniProt P21731).
T4 sequence (P21731 whole entry): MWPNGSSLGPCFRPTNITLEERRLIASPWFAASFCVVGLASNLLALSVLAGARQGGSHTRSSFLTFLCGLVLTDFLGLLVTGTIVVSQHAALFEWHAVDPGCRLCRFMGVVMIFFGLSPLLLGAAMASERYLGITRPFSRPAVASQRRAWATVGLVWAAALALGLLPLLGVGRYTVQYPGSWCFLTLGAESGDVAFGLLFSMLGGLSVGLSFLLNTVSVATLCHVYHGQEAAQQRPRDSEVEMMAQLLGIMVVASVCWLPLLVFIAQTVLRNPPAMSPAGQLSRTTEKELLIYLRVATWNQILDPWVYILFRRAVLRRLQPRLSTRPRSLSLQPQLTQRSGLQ

For assay [3], the target named is T5, Alpha-2A adrenergic receptor (Homo sapiens, UniProt P08913).
T5 sequence (P08913 whole entry): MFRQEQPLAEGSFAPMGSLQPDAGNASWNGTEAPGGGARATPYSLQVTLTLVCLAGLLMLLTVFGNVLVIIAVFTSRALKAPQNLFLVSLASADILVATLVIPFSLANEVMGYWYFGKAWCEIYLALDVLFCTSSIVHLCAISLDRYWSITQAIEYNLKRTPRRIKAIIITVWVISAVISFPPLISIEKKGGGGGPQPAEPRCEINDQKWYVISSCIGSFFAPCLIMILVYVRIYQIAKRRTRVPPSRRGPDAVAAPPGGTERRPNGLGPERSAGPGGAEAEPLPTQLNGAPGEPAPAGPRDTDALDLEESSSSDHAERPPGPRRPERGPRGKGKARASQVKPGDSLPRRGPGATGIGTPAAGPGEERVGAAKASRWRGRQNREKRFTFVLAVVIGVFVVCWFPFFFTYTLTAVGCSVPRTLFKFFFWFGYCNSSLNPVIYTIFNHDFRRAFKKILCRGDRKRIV
In kind it is functional, cell-based.
Also: assay procedure not described here.

Chain of Beta-1 adrenergic receptor (P08588 whole entry): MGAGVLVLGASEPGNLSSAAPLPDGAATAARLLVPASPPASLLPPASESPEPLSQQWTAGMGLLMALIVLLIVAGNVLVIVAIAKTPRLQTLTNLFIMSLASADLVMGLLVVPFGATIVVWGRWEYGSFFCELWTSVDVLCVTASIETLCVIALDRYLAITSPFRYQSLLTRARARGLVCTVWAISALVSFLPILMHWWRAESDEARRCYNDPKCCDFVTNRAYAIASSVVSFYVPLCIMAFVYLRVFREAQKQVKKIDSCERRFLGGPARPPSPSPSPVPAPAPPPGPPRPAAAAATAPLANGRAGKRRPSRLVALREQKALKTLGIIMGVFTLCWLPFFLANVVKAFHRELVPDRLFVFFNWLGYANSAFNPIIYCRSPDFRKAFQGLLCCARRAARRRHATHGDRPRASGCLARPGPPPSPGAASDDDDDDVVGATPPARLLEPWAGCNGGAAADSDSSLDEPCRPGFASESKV

Broadly, the AC50 is the concentration at which the activity in the assay is half-maximal. Low values mean greater potency, high ones weaker potency. On to `C[C@]1(COc2ccc(N3CCC(Oc4ccc(OC(F)(F)F)cc4)CC3)cc2)Cn2cc([N+](=O)[O-])nc2O1`, for which the AC50 is over 30 µM at Adenosine receptor A1; over 10 µM in assay [1]; over 30 µM on B2 bradykinin receptor; over 30 µM in assay [2]; over 30 µM at Thromboxane A2 receptor.

As for `C[C@]12CC[C@H](O)CC1=CC[C@@H]1[C@@H]2CC[C@]2(C)C(c3cccnc3)=CC[C@@H]12` [ABIRATERONE], the AC50 on Adenosine receptor A1 was over 30 µM; in assay [3], over 10 µM; in assay [1], over 30 µM; at B2 bradykinin receptor, over 30 µM; in assay [2], over 30 µM; on Thromboxane A2 receptor, over 30 µM.

As to `CC(=O)OCC[N+](C)(C)C` [ACETYLCHOLINE], the AC50 on Adenosine receptor A1 was over 30 µM; in assay [3], over 10 µM; in assay [1], over 30 µM; at B2 bradykinin receptor it was over 30 µM; in assay [2] it was over 30 µM; at Thromboxane A2 receptor, over 30 µM.

Consider `O=C(Nc1nc(-c2cc(Cl)cs2)c(N2CCN(C3CCCCC3)CC2)s1)c1cnc(N2CCC(C(=O)O)CC2)c(Cl)c1` [AVATROMBOPAG], for which the AC50 (on Adenosine receptor A1; in assay [1]; at Thromboxane A2 receptor) was over 10 µM each time.

In the case of `CN(C)C(=O)Oc1cc(OC(=O)N(C)C)cc(C(O)CNC(C)(C)C)c1` (centres undefined) [BAMBUTEROL], the AC50 (at Adenosine receptor A1; in assay [1]; at B2 bradykinin receptor; in assay [2]; on Thromboxane A2 receptor) was over 30 µM each time.

Take `C[C@H]1C[C@H]2[C@@H]3CCC4=CC(=O)C=C[C@]4(C)[C@@]3(Cl)[C@@H](O)C[C@]2(C)[C@@]1(O)C(=O)CO` [BECLOMETHASONE]: the AC50 was over 30 µM on Adenosine receptor A1; over 10 µM in assay [1]; over 30 µM on B2 bradykinin receptor; over 30 µM in assay [2]; over 30 µM at Thromboxane A2 receptor.

For `CO[C@@]1(NC(=O)CSCC#N)C(=O)N2C(C(=O)O)=C(CSc3nnnn3C)CS[C@@H]21` [CEFMETAZOLE], the AC50 in assay [3] was over 30 µM.

Turning to `CO/N=C(\C(=O)N[C@@H]1C(=O)N2C(C(=O)[O-])=C(C[n+]3cccc4c3CCC4)CS[C@H]12)c1csc(N)n1` [CEFPIROME], the AC50 in assay [3] is over 30 µM.

Turning to `NS(=O)(=O)c1cc(C2(O)NC(=O)c3ccccc32)ccc1Cl` (centres undefined) [CHLORTHALIDONE], the concentration at half-maximal activity (AC50) (at Adenosine receptor A1; in assay [3]; in assay [1]; on B2 bradykinin receptor; in assay [2]; at Thromboxane A2 receptor) was over 10 µM in each case.

Take `CC[C@H]1OC(=O)[C@H](C)[C@@H](O[C@H]2C[C@@](C)(OC)[C@@H](O)[C@H](C)O2)[C@H](C)[C@@H](O[C@@H]2O[C@H](C)C[C@H](N(C)C)[C@H]2O)[C@](C)(OC)C[C@@H](C)C(=O)[C@H](C)[C@@H](O)[C@]1(C)O` [CLARITHROMYCIN]: the AC50 (at Adenosine receptor A1; in assay [3]; in assay [1]; at B2 bradykinin receptor; in assay [2]; at Thromboxane A2 receptor) was over 30 µM throughout.

With `Oc1c(I)cc(Cl)c2cccnc12` [CLIOQUINOL], in assay [3], the AC50 was over 30 µM.

For the compound `C[C@@H]1CCC[C@H](C)N1NC(=O)c1ccc(Cl)c(S(N)(=O)=O)c1` [CLOPAMIDE], the AC50 (on Adenosine receptor A1; in assay [3]; in assay [1]; at B2 bradykinin receptor; in assay [2]; at Thromboxane A2 receptor) was over 30 µM throughout.

On to `c1ccc2c(CC3=NCCN3)cccc2c1` [NAPHAZOLINE], for which the AC50 in assay [3] amounted to 0.14 µM. This counts as sub-micromolar.

For the compound `CNCCCC1c2ccccc2C=Cc2ccccc21` [PROTRIPTYLINE], the AC50 (at Adenosine receptor A1; in assay [3]; at B2 bradykinin receptor; in assay [2]; at Thromboxane A2 receptor) was over 10 µM each time.

Consider `CCSc1ccc2c(c1)N(CCCN1CCN(C)CC1)c1ccccc1S2` [THIETHYLPERAZINE], for which the AC50 in assay [1] and in assay [2] was over 30 µM each time.
